Patent US12084459B2, “2-(4-{1-[6-(4-isopropyl-phenyl)-imidazo[2,1-b][1,3,4]thiadiazol-2-yl]-piperidin-4-ylmethyl}-piperazin-1-yl)-ethanol and use thereof” (Urifer Ltd., priority 2020, dated 2024)

What was measured:
H358 derived xenografts = H358 derived xenografts in Nude mice; assay type: in vivo; details: 25 mg/kg daily intraperitoneal in 1% Tween 80, H358 xenografts, FIG. 7
From the text: In vivo activity of the E266 (compound (I) of the present application) compared to that of the E260 (EP 2401283) in H358 derived xenografts in immune-compromised (Nude) mice.
In order to compare the relative efficacy of E266 and E260 in inhibiting the development and progression of malignant tumors in-vivo, the activity in xenograft model in mice was examined for both compounds. H358 derived xenografts in immune-compromised were elicited in (Nude) mice. The H358 cells, which are metastatic bronchioloalveolar carcinoma (BAC)-non-small cell lung cancer (NSCLC) cells, were subcutaneously injected to the back of the nude mice. When the developing xenografts reached 100 mm^3 size, the inflicted animals were divided into three groups, 10 mice in each group. One group received daily intraperitoneal injection of the solvent 1% Tween 80. This solvent/emulsifier is biocompatible and is approved for pharmaceutical applications in humans. The second group received daily intraperitoneal injection of 25 mg/kg E260 dissolved in 1% Tween 80, and the third group got daily intraperitoneal injection of 25 mg/kg, E266 dissolved in the 1% Tween 80, solvent. The progression of the elicited xenografts was monitored by measuring twice a week the volumes of the developing tumors.

[1] = test system: metastatic adenocarcinoma PC3 prostate Cancer cells; assay: viability / killing of PC3 cells; assay type: cell-based; details: E266 versus E260; compound (I) as tartarate salt in 0.5% Tween-80; FIG. 6
Protocol: (§1) The compound (I), as tartarate salt was dissolved in 0.5% Tween-80 to affect the viability of several cell lines as follows.
(§2) The effect of the compound (I) (E266) on the growth profile of cancer cells which express Fer was tested. The cells that were tested were: the metastatic colon cancer cell line—SW620, the metastatic pancreatic ductal-adenocarcinoma SU.86.86 cancer cell-line—SU.86.86, the metastatic Triple Negative breast cancer cell line—MDA-MB-231, and the metastatic prostate cancer cell-line—PC3. The effect of the compound (I) (E266) on FS11 cells, a non malignant fibroblastic cell line, was also studied.

[2] = insolubility level in PBS/Polysorbate-80 (Tween 80) solution; assay type: physicochemical; details: 0.5 mM and 1 mM in PBS/Polysorbate-80 (Tween 80) solution at 25° C. (FIG. 1A, 1B)
normal Epithelial cells = assay: effect on normal epithelial cells; assay type: cell-based; details: FIG. 2
Protocol: Compound (I) was dissolved in 20% hydroxypropylcyclodextrane and the volume of administration (IP) was 10 ml/kg.

[3] = test system: metastatic colon cancer SW620 cells; assay: viability / killing of SW620 cells; assay type: cell-based; details: E266 versus E260; compound (I) as tartarate salt in 0.5% Tween-80; FIG. 3
Protocol: as §1, §2

[4] = test system: metastatic pancreatic ductal adenocarcinoma Su.86.86 cancer cells; assay: viability / killing of Su.86.86 cells; assay type: cell-based; details: E266 versus E260; compound (I) as tartarate salt in 0.5% Tween-80; FIG. 4
Protocol: as §1, §2

[5] = test system: metastatic Triple negative MDA-MB-231 Breast cancer cells; assay: viability / killing of MDA-MB-231 cells; assay type: cell-based; details: E266 versus E260; compound (I) as tartarate salt in 0.5% Tween-80; FIG. 5
Protocol: as §1, §2

CC(C)c1ccc(-c2cn3nc(N4CCC(CN5CCN(C)CC5)CC4)sc3n2)cc1 [Compound E260, reference compound]
progression of the developing tumors (xenograft volume) (H358 derived xenografts): failed to do so
killing metastatic adenocarcinoma PC3 prostate Cancer cells [1]: comparable activity
solubility (insolubility level) [2]: insoluble
effect on normal Epithelial cells (normal Epithelial cells): no effect
killing metastatic colon cancer SW620 cells [3]: comparable activity
killing metastatic pancreatic ductal adenocarcinoma Su.86.86 cancer cells [4]: comparable activity
killing metastatic Triple negative MDA-MB-231 Breast cancer cells [5]: comparable activity
